Read-outs that look alike come from different tables or passages of the source.
Legend:
[1] = system: NF-κB in NIH3T3/NF-κB-luc cell line; assay: NF-κB luciferase reporter in NIH3T3/NF-κB-luc; type: cell-based; settings: Mus musculus
Description: (b) TNF-α-induced activation of an NF-κB luciferase reporter in the mouse NIH3T3 cell line.
NF-κB is a transcription factor that plays a central role in the regulation of many immune and inflammatory responses. […] The NIH3T3/NF-κB-luc cell line maintains a chromosomal integration of a Firefly luciferase reporter construct regulated by eight copies of the NF-κB response element. The effects of these compounds can be quantified by measuring the value of the NF-κB IC50.

[2] = system: RANKL-induced osteoclastogenesis in RAW264.7; assay: RANKL-induced osteoclastogenesis (TRAP activity) in RAW264.7; type: cell-based; settings: Mus musculus, 96 h, 50 ng/mL RANKL, four days, read-out: IC50, RANKL-induced TRAP activity and formation of osteoclasts
Procedure: STAT3 (124H6) and phospho-STAT3 (Tyr705) monoclonal antibodies were from Cell Signaling Technology. Peroxidase-conjugated Affini-pure Goat anti-Rabbit IgG and Peroxidase-conjugated Affini-pure Goat anti-Mouse IgG were from Jackson ImmunoResearch. Osteoclastogenesis is a multi-step differentiation process that results from the binding of RANKL to its receptor, RANK, on cells of hematopoietic origin. […] RAW 264.7 cells were plated in 24-well plates at a density of 5,000 cells/well. […] The treated cells were incubated for four days to allow differentiation into osteoclasts. Differentiation into osteoclasts was assessed by measuring TRAP activity. In brief, 90 μl of conditioned cell culture media was removed from each test well and aliquoted into triplicate wells (30 μL/well) of a 96-well plate. 170 μL of TRAP Assay buffer (Kamiya Biomedical) was then added to each well and the plate was incubated at 37° C. for 3 hours. Following the incubation, absorbance at 540 nm was determined using a Spectramax M2 plate reading spectrophotometer.

[3] = target: CYP2C8 (Homo sapiens, UniProt P10632); assay: CYP450 inhibition in pooled human liver microsomes, CYP2C8; type: in vitro ADME; settings: read-out: Ki, direct inhibition of CYP2C8
CYP2C8, sequence (P10632 whole entry): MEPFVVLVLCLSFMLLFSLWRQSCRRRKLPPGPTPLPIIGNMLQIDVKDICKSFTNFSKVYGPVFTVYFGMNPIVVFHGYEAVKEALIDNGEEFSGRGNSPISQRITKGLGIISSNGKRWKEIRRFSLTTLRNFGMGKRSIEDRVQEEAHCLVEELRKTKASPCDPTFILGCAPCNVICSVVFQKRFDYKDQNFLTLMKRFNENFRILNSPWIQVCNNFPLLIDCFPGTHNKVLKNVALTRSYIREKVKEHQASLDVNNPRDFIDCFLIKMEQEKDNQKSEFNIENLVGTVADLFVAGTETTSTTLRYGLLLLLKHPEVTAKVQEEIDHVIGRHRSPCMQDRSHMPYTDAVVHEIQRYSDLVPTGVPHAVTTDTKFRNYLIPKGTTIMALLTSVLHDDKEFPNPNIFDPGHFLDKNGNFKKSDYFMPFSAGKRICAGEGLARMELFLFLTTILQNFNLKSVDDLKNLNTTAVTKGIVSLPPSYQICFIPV
Description: (§1) In addition, there was little or no evidence of metabolism-dependent inhibition of any of the enzymes tested.

[4] = target: CYP1A2 (Homo sapiens, UniProt P05177); assay: in vitro; type: in vitro ADME; settings: microsomes
CYP1A2, sequence (P05177 whole entry): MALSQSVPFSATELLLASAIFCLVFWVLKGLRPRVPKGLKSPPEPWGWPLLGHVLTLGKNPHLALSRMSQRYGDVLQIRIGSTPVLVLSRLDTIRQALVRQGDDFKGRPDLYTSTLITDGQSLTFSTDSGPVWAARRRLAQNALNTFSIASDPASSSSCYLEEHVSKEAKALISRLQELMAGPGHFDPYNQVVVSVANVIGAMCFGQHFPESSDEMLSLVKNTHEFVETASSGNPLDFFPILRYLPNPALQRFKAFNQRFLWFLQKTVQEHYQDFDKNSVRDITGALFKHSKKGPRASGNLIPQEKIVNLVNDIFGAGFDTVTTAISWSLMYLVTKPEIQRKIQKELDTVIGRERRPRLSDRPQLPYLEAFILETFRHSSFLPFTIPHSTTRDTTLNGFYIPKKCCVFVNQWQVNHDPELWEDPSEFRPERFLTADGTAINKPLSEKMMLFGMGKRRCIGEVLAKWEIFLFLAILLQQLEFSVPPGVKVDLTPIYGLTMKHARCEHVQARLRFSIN
Description: as §1

[5] = target: CYP2C19 (Homo sapiens, UniProt P33261); assay: CYP450 inhibition in pooled human liver microsomes, CYP2C19; type: in vitro ADME; settings: highest concentration tested (3 μM)
CYP2C19, sequence (P33261 whole entry): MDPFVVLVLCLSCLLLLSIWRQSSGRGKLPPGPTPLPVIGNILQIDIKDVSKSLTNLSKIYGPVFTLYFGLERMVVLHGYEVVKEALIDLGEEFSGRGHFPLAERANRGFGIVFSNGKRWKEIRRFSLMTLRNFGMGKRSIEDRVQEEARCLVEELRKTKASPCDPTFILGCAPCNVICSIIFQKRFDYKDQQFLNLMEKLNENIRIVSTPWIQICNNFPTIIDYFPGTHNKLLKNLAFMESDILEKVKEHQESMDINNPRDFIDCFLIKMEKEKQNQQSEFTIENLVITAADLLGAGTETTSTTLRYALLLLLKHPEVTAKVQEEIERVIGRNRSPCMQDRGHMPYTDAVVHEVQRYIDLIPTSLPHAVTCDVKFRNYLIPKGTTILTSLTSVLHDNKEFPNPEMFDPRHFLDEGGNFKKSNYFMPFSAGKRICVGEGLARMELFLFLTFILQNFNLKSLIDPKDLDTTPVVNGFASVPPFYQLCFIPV
Description: as §1

## CC1(C)CC[C@]2(NC(=O)C(C)(F)F)CC[C@]3(C)[C@H](C(=O)C=C4[C@@]5(C)C=C(C#N)C(=O)C(C)(C)[C@@H]5CC[C@]43C)[C@@H]2C1 [RTA 408, N-((4aS,6aR,6bS,8aR,12aS,14aR,14bS)-11-cyano-2,2,6a,6b,9,9,12a-heptamethyl-10,14-dioxo-1,2,3,4,4a,5,6,6a,6b,7,8,8a,9,10,12a,14,14a,14b-octadecahydropicen-4a-yl)-2,2-difluoropropanamide]
[1]; not viability normalized, read-out: NIH3T3/NF-κB IC50
  IC50: 1200 nM
[1]; viability normalized, read-out: NIH3T3/NF-κB IC50, normalized for viability
  IC50: 1400 nM
[2]
  IC50: 5 to 10 nM
[3]
  Ki: ~500 nM
[4]
  inhibition at 3 µM: < 50%
[5]
  inhibition at 3 µM: < 50%

From patent US9701709B2 (REATA PHARMACEUTICALS, INC., priority 2012, dated 2017)
